Measurements from the supplement of paper PMC13380429.
± gives the standard deviation of the averaged measurements.

Key:
Conditions in all cases: 72 h
Caco-2 [1] = assay: cell viability relative to DMSO; higher = less toxic
Calu-3 [2] = assay: as above
HepG2 [3] = assay: as above
U2OS [4] = assay: as above
Vero E6 [5] = assay: as above
Caco-2 [6] = assay: relative viability EC50 (midpoint between 100% and the lowest measured viability); higher = less toxic
Calu-3 [7] = assay: as above
HepG2 [8] = assay: as above
U2OS [9] = assay: as above
Vero E6 [10] = assay: as above
Caco-2 [11] = assay: drug sensitivity score (DSS) for viability; higher = more toxic; extreme values may be limits of the assay
Calu-3 [12] = assay: as above
HepG2 [13] = assay: as above
U2OS [14] = assay: as above
Vero E6 [15] = assay: as above

Structure (SMILES) | cell viability (Caco-2 [1]; 1 nM) | cell viability (Caco-2 [1]; 10 nM) | cell viability (Caco-2 [1]; 100 nM) | cell viability (Caco-2 [1]; 1000 nM) | cell viability (Caco-2 [1]; 10000 nM) | cell viability (Calu-3 [2]; 1 nM) | cell viability (Calu-3 [2]; 10 nM) | cell viability (Calu-3 [2]; 100 nM) | cell viability (Calu-3 [2]; 1000 nM) | cell viability (Calu-3 [2]; 10000 nM) | cell viability (HepG2 [3]; 1 nM) | cell viability (HepG2 [3]; 10 nM) | cell viability (HepG2 [3]; 100 nM) | cell viability (HepG2 [3]; 1000 nM) | cell viability (HepG2 [3]; 10000 nM) | cell viability (U2OS [4]; 1 nM) | cell viability (U2OS [4]; 10 nM) | cell viability (U2OS [4]; 100 nM) | cell viability (U2OS [4]; 1000 nM) | cell viability (U2OS [4]; 10000 nM) | cell viability (Vero E6 [5]; 1 nM) | cell viability (Vero E6 [5]; 10 nM) | cell viability (Vero E6 [5]; 100 nM) | cell viability (Vero E6 [5]; 1000 nM) | cell viability (Vero E6 [5]; 10000 nM) | relative viability EC50 (Caco-2 [6]) | relative viability EC50 (Calu-3 [7]) | relative viability EC50 (HepG2 [8]) | relative viability EC50 (U2OS [9]) | relative viability EC50 (Vero E6 [10]) | drug sensitivity score (Caco-2 [11]) | drug sensitivity score (Calu-3 [12]) | drug sensitivity score (HepG2 [13]) | drug sensitivity score (U2OS [14]) | drug sensitivity score (Vero E6 [15])
CCCCOC(=O)c1ccc(N)cc1 [butamben] | 108% | 94% | 95.6% | 90.9% | 97.5% | 98.6% | 96.7% | 94.2% | 93.7% | 94.1% | 104% | 93.6% | 124% | 112% | 124% | 98.7% | 96.5% | 102% | 94.9% | 103% | 94.2% | 102% | 96.3% | 92.8% | 82.3% | > 10 µM | > 10 µM | > 10 µM | > 10 µM | > 10 µM | 0 | 0 | 0 | 0 | 0.7
CC[C@H](C)C[C@H](C)CCCCCCCCC(=O)N[C@H]1C[C@@H](O)[C@@H](NCCN)NC(=O)[C@@H]2[C@@H](O)CCN2C(=O)[C@H]([C@H](O)CCN)NC(=O)[C@H]([C@H](O)[C@@H](O)c2ccc(O)cc2)NC(=O)[C@@H]2C[C@@H](O)CN2C(=O)[C@H]([C@@H](C)O)NC1=O [caspofungin] | 88.2 ± 4.6% | 96.5 ± 3% | 115 ± 24% | 90.2 ± 18% | 95 ± 1.3% | 104 ± 13% | 104 ± 14% | 104 ± 1.4% | 96.5 ± 5.9% | 89.5 ± 0.85% | 91.8% | 106% | 110% | 116% | 103% | 95.2 ± 2.2% | 95.6 ± 0.14% | 98 ± 1.3% | 98.2 ± 6.6% | 99 ± 1.6% | 98.1 ± 1.8% | 99 ± 3.3% | 98.85 ± 0.64% | 95.1 ± 1.6% | 101 ± 7.1% | > 10 µM | > 10 µM | > 10 µM | > 10 µM | > 10 µM | 1.35 ± 1.9 | 0.1 ± 0.14 | 0 | 0 | 0
CC1=C(C(=O)O)N2C(=O)[C@@H](NC(=O)[C@H](N)c3ccc(O)cc3)[C@H]2SC1 [cefadroxil] | 92.8% | 93.5% | 93.1% | 85.7% | 99.1% | 100% | 99.1% | 107% | 93.2% | 106% | 90.4% | 101% | 95.6% | 103% | 105% | 101% | 96.2% | 99.4% | 97% | 103% | 89.4% | 101% | 91.8% | 98.1% | 104% | > 10 µM | > 10 µM | > 10 µM | > 10 µM | > 10 µM | 0 | 0 | 0 | 0 | 0
CO[C@@]1(NC(=O)Cc2cccs2)C(=O)N2C(C(=O)O)=C(COC(N)=O)CS[C@@H]21 [cefoxitin] | 90.1% | 95.5% | 102% | 101% | 97.8% | 106% | 94.4% | 106% | 104% | 110% | 113% | 91.4% | 98.1% | 97.4% | 97.4% | 95.6% | 99% | 96.3% | 102% | 105% | 104% | 95.7% | 100% | 96.8% | 85.5% | > 10 µM | > 10 µM | > 10 µM | > 10 µM | > 10 µM | 0 | 0 | 0 | 0 | 0.5
Nc1nc(/C(=C/CC(=O)O)C(=O)N[C@@H]2C(=O)N3C(C(=O)O)=CCS[C@H]23)cs1 [ceftibuten] | 102% | 102% | 106% | 94.9% | 104% | 103% | 99.9% | 102% | 94.6% | 106% | 86.3% | 105% | 99.3% | 95.3% | 91% | 101% | 95% | 100% | 97.8% | 106% | 99.5% | 104% | 96.1% | 104% | 97.8% | > 10 µM | > 10 µM | > 10 µM | > 10 µM | > 10 µM | 0 | 0 | 0 | 0 | 0
CN1C(=O)CCS(=O)(=O)C1c1ccc(Cl)cc1 (stereo not given) [chlormezanone] | 94.4% | 96.2% | 101% | 95.7% | 99.6% | 96% | 102% | 96.6% | 97.6% | 102% | 96.5% | 97.7% | 96.7% | 103% | 103% | 101% | 97.1% | 102% | 95.7% | 103% | 103% | 106% | 104% | 103% | 97.8% | > 10 µM | > 10 µM | > 10 µM | > 10 µM | > 10 µM | 0 | 0 | 0 | 0 | 0
Cc1cc(O)c(C(C)C)cc1Cl [chlorothymol] | 95.6% | 90.3% | 95.8% | 101% | 99.6% | 100% | 83.8% | 101% | 93.5% | 91.9% | 89.8% | 90.1% | 92.9% | 98.7% | 104% | 99.5% | 97.9% | 104% | 95.9% | 102% | 96.9% | 96.9% | 93.7% | 100% | 109% | > 10 µM | > 10 µM | > 10 µM | > 10 µM | > 10 µM | 0 | 0 | 0 | 0 | 0
Nc1ccn(C[C@@H](CO)OCP(=O)(O)O)c(=O)n1 [cidofovir] | 103% | 92.7% | 106% | 96.8% | 101% | 93.7% | 104% | 112% | 101% | 107% | 97% | 98.3% | 104% | 111% | 120% | 99.4% | 95.7% | 97.5% | 95.3% | 98.7% | 93.7% | 94.3% | 88.4% | 87.4% | 99.6% | > 10 µM | > 10 µM | > 10 µM | > 10 µM | > 10 µM | 0 | 0 | 0 | 0 | 0
CN(C(=O)CCCOc1ccc2[nH]c(=O)ccc2c1)C1CCCCC1 [cilostamide] | 100% | 94.7% | 99.2% | 96.9% | 90.6% | 92.8% | 92.9% | 94.6% | 85.3% | 105% | 97.2% | 98.7% | 98.8% | 110% | 110% | 102% | 95.5% | 101% | 92.9% | 97% | 91.7% | 98.3% | 89.8% | 98.1% | 104% | > 10 µM | > 10 µM | > 10 µM | > 10 µM | > 10 µM | 0 | 0 | 0 | 0 | 0
O=C/C=C/c1ccccc1 [cinnamaldehyde] | 103% | 94.2% | 96.9% | 97.6% | 101% | 90.3% | 105% | 105% | 95.1% | 102% | 97.8% | 100% | 108% | 108% | 97.5% | 106% | 99.2% | 98.6% | 96.8% | 99.4% | 92.3% | 99.5% | 96.7% | 98.7% | 95.9% | > 10 µM | > 10 µM | > 10 µM | > 10 µM | > 10 µM | 0 | 0 | 0 | 0 | 0
C=C[C@@]1(C)CC(=O)[C@]2(O)[C@@]3(C)[C@@H](O)CCC(C)(C)[C@@H]3[C@H](O)[C@H](OC(C)=O)[C@@]2(C)O1 [colforsin] | 97.9 ± 2.7% | 99.3 ± 1.3% | 100 ± 3.5% | 109 ± 6.7% | 118 ± 10% | 106 ± 14% | 109 ± 11% | 103 ± 3% | 106 ± 2.1% | 97.5 ± 7.2% | 110 ± 8.1% | 106 ± 3.4% | 101 ± 3.2% | 96.4 ± 4.8% | 99.2 ± 3.2% | 101 ± 1.1% | 101 ± 5% | 95.9 ± 0.28% | 100 ± 1.4% | 96.65 ± 0.64% | 97.7 ± 6.5% | 101 ± 14% | 103 ± 4.5% | 89.9 ± 3.5% | 85.7 ± 4.3% | > 10 µM | > 10 µM | > 10 µM | > 10 µM | > 10 µM | 0 | 0 | 0 | 0 | 0.4 ± 0.28
N#CCC(=O)NN [cyacetacide] | 98.2% | 102% | 100% | 95.6% | 97.8% | 84% | 103% | 96.3% | 95.7% | 108% | 95.7% | 91.9% | 97% | 97.4% | 93.4% | 95.5% | 103% | 96% | 94% | 102% | 106% | 98.6% | 102% | 108% | 102% | > 10 µM | > 10 µM | > 10 µM | > 10 µM | > 10 µM | 0 | 0 | 0 | 0 | 0
CN1CCN(C(c2ccccc2)c2ccccc2)CC1 [cyclizine] | 95.7% | 101% | 99.9% | 94.9% | 103% | 104% | 98.9% | 85.8% | 102% | 99.9% | 94.7% | 99.1% | 103% | 104% | 97.6% | 105% | 94% | 101% | 95.6% | 97.5% | 97.7% | 96.3% | 93.7% | 96% | 102% | > 10 µM | > 10 µM | > 10 µM | > 10 µM | > 10 µM | 0 | 0 | 0 | 0 | 0
CC(C)(C)OC(=O)N[C@H]1CCCCC/C=C\[C@@H]2C[C@@]2(C(=O)NS(=O)(=O)C2CC2)NC(=O)[C@@H]2C[C@@H](OC(=O)N3Cc4cccc(F)c4C3)CN2C1=O [danoprevir] | 98.1% | 98.5% | 98.4% | 101% | 83% | 107% | 103% | 85.1% | 107% | 102% | 109% | 104% | 94.2% | 92% | 95.1% | 104% | 101% | 98.9% | 99.4% | 98.2% | 106% | 98.8% | 98.6% | 103% | 103% | > 10 µM | > 10 µM | > 10 µM | > 10 µM | > 10 µM | 0.3 | 0 | 0 | 0 | 0
